Several values for one entry are separate records, joined by “and”; a condition that tells them apart may be missing. Identical values can stand only once.
Assays:
CD-1 female mice [1] = assay: mouse tail-flick test (antinociception, %MPE); format: in vivo; conditions: for antinociception (%MPE): at 30 min
Excerpt: Its antinociception (analgesia) in vivo had been investigated using the mouse tail flick test. The mouse tail-flick test is a well-known experimental model to verify the analgesic activity of potential moderate and severe pain relievers including muscarinic agonists (Chau, T. T: Analgesic Testing in Animal Models. Pharmacological Methods in the Control of Inflammation. 195-212. 1989, Alan R. Liss. Inc.). […] Other possible muscarinic agonist activities, such as tremor, sedation, salivation, and hypothermia were observed simultaneously.
(§1) Experiments were carried out using a commercially available tail-flick analgesia meter (model TF-6 analgesia meter, Emdie Instrument Company, Maidens, Va., USA). […] A 10-second cutoff time was used as the maximum latency to avoid tissue damage.
(§2) Control animals received the corresponding vehicle(s) by the same route of administration.
The percentage of maximum possible effect (%MPE) was calculated as follows:
%MPE=[(postdrug latency−predrug latency)÷(cutoff time−predrug latency)]×100%.
(§3) All results were expressed as mean±SEM. […] This comparison was carried out at the peak of antinociception (30 minutes). Student's T test (one tailed analysis)(Microsoft Excel 97, Microsoft Corporation, Redmond, Wash., USA) was used to analyse the statistical significance between the two groups. The value of p<0.05 was considered as statistically significant.
as §1, §2
as §3, with “minutes). One tailed” for “minutes).”, “(Microsoft” for “(one tailed analysis)(Microsoft”, “[…],” for “Redmond,”, “analysis” for “analyse”

CD-1 female mice [2] = assay: observation of muscarinic side effects (tremor, sedation, salivation); format: in vivo, mouse; conditions: at its ED50 dose
Experimental: (§4) Observations of tremor, sedation, and salivation were made by close visual inspection of the mice at 5, 15, 30 and 60 minutes after injection of 4-s-[4-propylsulfanyl)-1,2,5-thiadiazol-3-yl]-1-azatricyclo[3.3.1.1<3,7>]decane hydrochloride. Tremor and sedation were scored as +(indicated visible tremor or sedation) or −(indicated non-visible tremor or sedation). Salivation was scored according to the following scale: 0, no sign of saliva within animal's mouth; 1, evidence of saliva in animal's mouth, but not on animal's muzzle; and 2, evidence of saliva in animal's mouth and on muzzle. No other muscarinic receptor mediated activities were observed.
as §4, with “4-s-[4-(propylsulfanyl)-1,2,5-thiadiazol-3-yl]-1-azatricyclo[3.3.1.1<3,7>]decane” for “4-s-[4-propylsulfanyl)-1,2,5-thiadiazol-3-yl]-1-azatricyclo[3.3.1.1<3,7>]decane”

With CC(C)Cc1ccc(C(C)C(=O)O)cc1 (stereo not drawn) [ibuprofen] the antinociceptive effect (CD-1 female mice [1]; ibuprofen 50 mg/kg ip alone) was “without antinociceptive effect”.

With CCCSc1nsnc1[C@H]1[C@@H]2C[C@@H]3C[C@H]1CN(C3)C2.Cl [4-s-[4-(propylsulfanyl)-1,2,5-thiadiazol-3-yl]-1-azatricyclo[3.3.1.1<3,7>]decane hydrochloride] the “incidence of muscarinic side effects” value (CD-1 female mice [2]) was “low incidence”, the “antinociception (%MPE)” value (CD-1 female mice [1]; 0.03 mg/kg sc alone, hydrochloride) was 19% and the “antinociception (%MPE)” value (CD-1 female mice [1]; 0.05 mg/kg sc alone) was 38%. For the same molecule, the “antinociceptive potency relative to morphine” value (CD-1 female mice [1]; mouse tail-flick test, more potent than morphine) was 300-1000 fold.

In the case of CN1CC[C@]23c4c5ccc(O)c4O[C@H]2[C@@H](O)C=C[C@H]3[C@H]1C5 [morphine], the “antinociception (%MPE)” value (CD-1 female mice [1]; morphine 3 mg/kg sc alone) is reported as 13% and 25% and the “antinociception (%MPE)” value (CD-1 female mice [1]; morphine 5.0 mg/kg sc alone) is reported as 35%.

CS(=O)(=O)Nc1ccc([N+](=O)[O-])cc1OC1CCCCC1 [NS-398] was tested, and the antinociceptive effect (CD-1 female mice [1]; NS-398 0.05 mg/kg ip alone) was “without antinociceptive effect”.

For CC(=O)Nc1ccc(O)cc1 [acetaminophen], the antinociceptive effect (CD-1 female mice [1]; acetaminophen 60 mg/kg ip alone) was “without antinociceptive effect”.
